In paper PMC10174618, “Monoterpenoid aryl hydrocarbon receptor allosteric antagonists protect against ultraviolet skin damage in female mice” (Nature Communications, 2023) one finds remaining binding data, which are given here for one compound.

Molecules are shown by their SMILES.

What all share (assay): biochemical
Parameters in all cases: KINOMEscan scanMAX active site-directed competition binding assay, percent of control, 468 kinases
What all share (settings): competition binding, percent of control

One assay has as its target RIOK2 (Homo sapiens, UniProt Q9BVS4). In a few lines: (§1)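 Single-concentration screen (100 μM S-carvone) in a competition binding panel of 468 human kinases (KINOMEscan scanMAX); results given as percent of control, hit cutoff 35%.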
For a further assay, the target named is WEE1 (Homo sapiens, UniProt P30291). In a few lines: as §1
The target in another assay is CSNK1E (Homo sapiens, UniProt P49674). In a few lines:
as §1

Another assay deals with INSR (Homo sapiens, UniProt P06213). In short, it runs like this: as §1
Chain of INSR (P06213 whole entry): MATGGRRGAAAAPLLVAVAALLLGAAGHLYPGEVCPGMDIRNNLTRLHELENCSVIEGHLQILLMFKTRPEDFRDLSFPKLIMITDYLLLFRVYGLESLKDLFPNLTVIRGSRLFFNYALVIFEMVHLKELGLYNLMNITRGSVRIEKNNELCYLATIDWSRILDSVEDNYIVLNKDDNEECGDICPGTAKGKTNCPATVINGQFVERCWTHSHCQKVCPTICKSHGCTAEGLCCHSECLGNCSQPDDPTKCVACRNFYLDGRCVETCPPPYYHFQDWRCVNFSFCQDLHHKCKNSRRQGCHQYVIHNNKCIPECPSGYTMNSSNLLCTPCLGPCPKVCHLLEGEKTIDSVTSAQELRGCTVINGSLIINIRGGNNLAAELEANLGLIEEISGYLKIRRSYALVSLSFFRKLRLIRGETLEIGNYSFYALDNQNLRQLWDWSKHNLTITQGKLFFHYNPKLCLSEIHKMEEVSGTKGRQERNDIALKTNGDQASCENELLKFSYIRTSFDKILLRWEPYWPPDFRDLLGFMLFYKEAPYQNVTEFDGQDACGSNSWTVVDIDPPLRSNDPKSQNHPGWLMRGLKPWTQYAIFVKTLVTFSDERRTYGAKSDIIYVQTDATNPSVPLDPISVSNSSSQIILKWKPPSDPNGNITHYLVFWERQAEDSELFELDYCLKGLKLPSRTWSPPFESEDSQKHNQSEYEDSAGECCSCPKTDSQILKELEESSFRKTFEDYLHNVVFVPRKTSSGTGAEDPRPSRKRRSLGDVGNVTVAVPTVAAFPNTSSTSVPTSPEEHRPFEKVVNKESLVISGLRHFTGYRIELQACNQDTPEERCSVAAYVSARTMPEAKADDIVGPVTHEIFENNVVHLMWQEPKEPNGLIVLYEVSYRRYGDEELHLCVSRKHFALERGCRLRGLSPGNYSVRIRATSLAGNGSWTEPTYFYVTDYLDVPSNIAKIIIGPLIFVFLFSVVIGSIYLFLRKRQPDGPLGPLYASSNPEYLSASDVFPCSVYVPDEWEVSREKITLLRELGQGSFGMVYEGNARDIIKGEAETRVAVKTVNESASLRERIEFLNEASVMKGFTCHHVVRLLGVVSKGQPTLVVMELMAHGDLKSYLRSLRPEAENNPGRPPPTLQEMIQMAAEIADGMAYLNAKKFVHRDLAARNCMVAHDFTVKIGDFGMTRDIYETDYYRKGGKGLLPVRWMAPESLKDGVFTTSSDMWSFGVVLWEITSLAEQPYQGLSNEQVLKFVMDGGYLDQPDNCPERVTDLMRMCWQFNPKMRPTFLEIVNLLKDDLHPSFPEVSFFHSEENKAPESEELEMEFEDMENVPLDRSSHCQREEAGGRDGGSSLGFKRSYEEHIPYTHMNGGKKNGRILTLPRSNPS
For another assay, the target named is CDKL3 (Homo sapiens, UniProt Q8IVW4). In short, it runs like this:
as §1

For a further assay, the target named is PRKX (Homo sapiens, UniProt P51817). In a few lines:
as §1

For another assay, the target named is EIF2AK1 (Homo sapiens, UniProt Q9BQI3). In short, it runs like this: as §1
Another assay has as its target NEK6 (Homo sapiens, UniProt Q9HC98). In short, it runs like this: as §1
The target in another assay is T1, MST2 (Homo sapiens, UniProt Q13188).
T1 construct: gene STK3
In a few lines:
as §1

The target of another assay is CSNK1A1L (Homo sapiens, UniProt Q8N752). In short, it runs like this:
as §1

A further assay addresses T2, IKK-epsilon (Homo sapiens, UniProt Q14164).
T2 construct: gene IKBKE
In a few lines: as §1

The next assay concerns the target TGFBR2 (Homo sapiens, UniProt P37173). In a few lines: as §1
Assay [1] addresses EGFR(L747-E749del, A750P) (Homo sapiens, UniProt P00533, A750P/DEL747-749). In short, it runs like this: as §1
The target in another assay is ABL2 (Homo sapiens, UniProt P42684). In short, it runs like this: as §1
Another assay addresses PRKG1 (Homo sapiens, UniProt Q13976). In short, it runs like this:
as §1

In a further assay the target is INSRR (Homo sapiens, UniProt P14616). In short, it runs like this: as §1
Chain of INSRR (P14616 whole entry): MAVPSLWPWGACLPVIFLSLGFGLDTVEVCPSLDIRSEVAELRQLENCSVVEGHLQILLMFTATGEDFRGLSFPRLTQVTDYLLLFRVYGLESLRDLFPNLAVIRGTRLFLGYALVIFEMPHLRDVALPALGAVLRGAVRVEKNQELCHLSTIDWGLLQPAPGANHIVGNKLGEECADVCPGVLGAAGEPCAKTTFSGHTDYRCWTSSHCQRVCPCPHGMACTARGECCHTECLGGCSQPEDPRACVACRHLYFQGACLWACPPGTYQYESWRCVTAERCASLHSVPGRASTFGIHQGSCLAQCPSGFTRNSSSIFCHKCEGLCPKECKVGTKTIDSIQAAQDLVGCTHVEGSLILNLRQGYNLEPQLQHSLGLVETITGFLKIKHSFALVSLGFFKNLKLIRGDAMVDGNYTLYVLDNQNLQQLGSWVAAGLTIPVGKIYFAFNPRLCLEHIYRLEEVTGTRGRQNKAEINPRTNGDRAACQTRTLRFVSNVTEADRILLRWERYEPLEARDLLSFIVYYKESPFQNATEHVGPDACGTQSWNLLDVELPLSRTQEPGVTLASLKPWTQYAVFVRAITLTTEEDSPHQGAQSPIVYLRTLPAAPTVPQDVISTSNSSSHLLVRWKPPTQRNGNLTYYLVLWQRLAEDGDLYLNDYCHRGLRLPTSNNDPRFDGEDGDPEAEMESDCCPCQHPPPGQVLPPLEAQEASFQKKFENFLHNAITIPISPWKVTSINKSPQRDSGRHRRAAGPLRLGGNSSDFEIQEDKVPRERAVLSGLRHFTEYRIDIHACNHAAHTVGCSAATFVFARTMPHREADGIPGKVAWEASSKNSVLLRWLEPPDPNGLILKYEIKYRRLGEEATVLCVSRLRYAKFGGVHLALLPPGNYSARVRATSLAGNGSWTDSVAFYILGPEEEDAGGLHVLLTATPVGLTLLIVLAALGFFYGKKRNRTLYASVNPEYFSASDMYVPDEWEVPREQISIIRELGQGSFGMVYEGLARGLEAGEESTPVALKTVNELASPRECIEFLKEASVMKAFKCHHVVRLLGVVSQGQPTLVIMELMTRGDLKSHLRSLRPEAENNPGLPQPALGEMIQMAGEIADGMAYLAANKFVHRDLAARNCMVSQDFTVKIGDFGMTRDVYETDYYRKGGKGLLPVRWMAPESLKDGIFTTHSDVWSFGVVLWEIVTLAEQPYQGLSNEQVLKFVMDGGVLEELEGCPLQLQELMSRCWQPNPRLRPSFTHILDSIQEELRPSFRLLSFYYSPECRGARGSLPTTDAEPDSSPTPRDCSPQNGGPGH
Another assay addresses T3, MEK5 (Homo sapiens, UniProt Q13163).
T3 construct: gene MAP2K5
In short, it runs like this: as §1

The target of a further assay is BMPR2 (Homo sapiens, UniProt Q13873). In short, it runs like this:
as §1

For assay [2], the target named is T4, ABL1(M351T)-phosphorylated (Homo sapiens, UniProt P00519, M351T).
T4 construct: phosphorylated
In a few lines: as §1

Another assay has as its target ROCK2 (Homo sapiens, UniProt O75116). In short, it runs like this: as §1
Another assay deals with MKNK1 (Homo sapiens, UniProt Q9BUB5). In short, it runs like this:
as §1

In a further assay the target is PRKG2 (Homo sapiens, UniProt Q13237). In a few lines: as §1

Chain of PRKX (P51817 whole entry): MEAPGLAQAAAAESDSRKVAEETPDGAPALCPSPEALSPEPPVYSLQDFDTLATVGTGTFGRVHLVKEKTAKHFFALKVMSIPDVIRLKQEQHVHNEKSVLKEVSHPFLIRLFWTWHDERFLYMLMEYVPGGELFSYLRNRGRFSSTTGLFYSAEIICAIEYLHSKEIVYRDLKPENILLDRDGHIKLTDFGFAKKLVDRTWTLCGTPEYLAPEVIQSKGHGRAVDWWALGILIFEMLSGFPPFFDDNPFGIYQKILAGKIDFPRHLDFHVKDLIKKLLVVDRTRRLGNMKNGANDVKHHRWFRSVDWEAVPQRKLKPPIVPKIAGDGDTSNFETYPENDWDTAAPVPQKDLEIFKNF
Chain of RIOK2 (Q9BVS4 whole entry): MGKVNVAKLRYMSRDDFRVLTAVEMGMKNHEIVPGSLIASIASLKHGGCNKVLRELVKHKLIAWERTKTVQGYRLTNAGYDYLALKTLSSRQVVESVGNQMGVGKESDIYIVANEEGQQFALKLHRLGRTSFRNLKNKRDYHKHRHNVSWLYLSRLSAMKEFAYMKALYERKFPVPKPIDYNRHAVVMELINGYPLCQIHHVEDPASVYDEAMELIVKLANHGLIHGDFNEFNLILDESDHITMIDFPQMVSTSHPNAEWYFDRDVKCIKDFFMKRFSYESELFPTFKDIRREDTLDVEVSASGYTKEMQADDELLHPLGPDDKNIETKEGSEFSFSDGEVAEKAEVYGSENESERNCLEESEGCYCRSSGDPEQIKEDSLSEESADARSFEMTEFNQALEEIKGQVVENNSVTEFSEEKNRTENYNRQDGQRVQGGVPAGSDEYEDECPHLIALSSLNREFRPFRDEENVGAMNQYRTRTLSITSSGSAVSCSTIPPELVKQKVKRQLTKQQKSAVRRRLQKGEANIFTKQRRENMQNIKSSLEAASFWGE
Chain of NEK6 (Q9HC98 whole entry): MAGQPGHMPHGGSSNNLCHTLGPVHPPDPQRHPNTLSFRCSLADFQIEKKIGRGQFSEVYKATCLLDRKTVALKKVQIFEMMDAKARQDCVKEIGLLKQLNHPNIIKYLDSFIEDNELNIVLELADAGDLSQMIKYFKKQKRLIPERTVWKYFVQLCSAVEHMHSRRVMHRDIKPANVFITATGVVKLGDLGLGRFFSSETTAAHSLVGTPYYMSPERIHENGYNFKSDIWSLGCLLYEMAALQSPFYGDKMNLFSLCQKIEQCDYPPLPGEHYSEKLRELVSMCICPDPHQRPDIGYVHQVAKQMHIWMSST
T2 sequence (Q14164 whole entry): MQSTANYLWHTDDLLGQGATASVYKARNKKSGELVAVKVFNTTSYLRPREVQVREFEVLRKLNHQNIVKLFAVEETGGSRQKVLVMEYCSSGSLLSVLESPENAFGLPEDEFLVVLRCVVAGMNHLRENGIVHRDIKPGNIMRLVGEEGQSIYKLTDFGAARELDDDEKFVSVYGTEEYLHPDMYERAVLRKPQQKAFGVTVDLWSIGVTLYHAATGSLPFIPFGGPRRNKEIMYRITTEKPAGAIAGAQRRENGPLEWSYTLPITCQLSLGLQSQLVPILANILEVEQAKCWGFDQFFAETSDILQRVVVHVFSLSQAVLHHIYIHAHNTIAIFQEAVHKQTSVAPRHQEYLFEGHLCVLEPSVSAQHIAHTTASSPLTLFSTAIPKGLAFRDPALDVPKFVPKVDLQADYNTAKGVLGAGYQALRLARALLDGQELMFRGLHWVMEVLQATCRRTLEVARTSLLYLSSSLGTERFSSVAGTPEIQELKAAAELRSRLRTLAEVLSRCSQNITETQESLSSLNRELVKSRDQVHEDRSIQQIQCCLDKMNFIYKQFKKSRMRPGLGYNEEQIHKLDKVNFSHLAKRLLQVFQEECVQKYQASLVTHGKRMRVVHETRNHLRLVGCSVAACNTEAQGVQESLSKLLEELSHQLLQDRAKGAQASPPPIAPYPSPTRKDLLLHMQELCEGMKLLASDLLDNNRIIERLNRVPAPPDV
Chain of CSNK1A1L (Q8N752 whole entry): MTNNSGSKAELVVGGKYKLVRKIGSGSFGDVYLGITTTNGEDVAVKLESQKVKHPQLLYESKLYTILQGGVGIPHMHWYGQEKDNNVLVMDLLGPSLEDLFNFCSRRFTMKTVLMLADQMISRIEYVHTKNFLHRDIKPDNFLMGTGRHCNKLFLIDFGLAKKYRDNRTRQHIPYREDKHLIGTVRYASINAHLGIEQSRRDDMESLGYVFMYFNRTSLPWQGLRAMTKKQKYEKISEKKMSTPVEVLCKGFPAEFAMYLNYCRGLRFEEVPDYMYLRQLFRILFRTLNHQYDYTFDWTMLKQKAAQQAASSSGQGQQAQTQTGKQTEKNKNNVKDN

For the compound `C=C(C)[C@H]1CC=C(C)C(=O)C1` [S-carvone], the remaining binding at 100 µM came out at 90% on RIOK2; 81% at WEE1; 90% at CSNK1E; 68% at INSR; 89% on CDKL3; 100% at PRKX. Moreover, the remaining binding at 100 µM at EIF2AK1 came out at 75%; at NEK6, 84%; at MST2 it was 65%; at CSNK1A1L it was 85%; on IKK-epsilon, 52%; on TGFBR2 it was 77%. Also, the remaining binding at 100 µM in [1] came to 86%; at ABL2 it was 85%; at PRKG1, 84%; at INSRR, 84%; on MEK5, 74%; at BMPR2, 79%. For the same compound, the remaining binding at 100 µM amounted to 96% in [2], 66% at ROCK2, 62% at MKNK1 and 76% at PRKG2.
